Experimental data reported in PubChem BioAssay (NCI).
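Grown in 96-well plates, cells were treated for 48 hours with each compound at five concentrations. Insufficient inhibition: endpoint recorded as highest concentration tested. The concentration for 50% growth inhibition is given as GI50. The concentration for full growth arrest is given as TGI.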

Legend:
Experiment in all cases: growth of human tumour cells (NCI), 48 h
U251 CNS = tested on: U251 CNS
TK-10 renal = tested on: TK-10 renal
MDA-MB-231 breast = tested on: MDA-MB-231 breast
HOP-62 NSCLC = tested on: HOP-62 NSCLC
RXF 393 renal = tested on: RXF 393 renal
RPMI-8226 leukemia = tested on: RPMI-8226 leukemia
SK-MEL-5 melanoma = tested on: SK-MEL-5 melanoma
HS 578T breast = tested on: HS 578T breast
OVCAR-8 ovarian = tested on: OVCAR-8 ovarian
SW-620 colon = tested on: SW-620 colon
SK-OV-3 ovarian = tested on: SK-OV-3 ovarian
MOLT-4 leukemia = tested on: MOLT-4 leukemia
CAKI-1 renal = tested on: CAKI-1 renal
SK-MEL-28 melanoma = tested on: SK-MEL-28 melanoma

Compound | TGI (U251 CNS) [µM] | TGI (TK-10 renal) [µM] | TGI (MDA-MB-231 breast) [µM] | TGI (HOP-62 NSCLC) [µM] | TGI (RXF 393 renal) [µM] | TGI (RPMI-8226 leukemia) [µM] | TGI (SK-MEL-5 melanoma) [µM] | TGI (HS 578T breast) [µM] | TGI (OVCAR-8 ovarian) [µM] | TGI (SW-620 colon) [µM] | TGI (SK-OV-3 ovarian) [µM] | TGI (MOLT-4 leukemia) [µM] | TGI (CAKI-1 renal) [µM] | TGI (SK-MEL-28 melanoma) [µM] | GI50 (U251 CNS) [µM] | GI50 (MDA-MB-231 breast) [µM] | GI50 (RPMI-8226 leukemia) [µM] | GI50 (SK-MEL-5 melanoma) [µM] | GI50 (MOLT-4 leukemia) [µM] | GI50 (SK-MEL-28 melanoma) [µM]
CCN(CC)c1nc(N(C)C)c2ccc(OC)cc2n1 | 71.8 | > 100 | 75.8 | 76.7 | 34.7 | 31 | 24.7 | > 100 | > 100 | 50 | 52.5 | 22.1 | > 100 | 32.4 |  |  |  |  |  | 
CC1(C)CCCCCC(C)(CCCCCCCCCCCO)C1=O (configuration not stated) | 31.1 | 24.5 | 29.9 | 31.6 | 31.4 | 47.2 | 31.3 | 32.4 | 31.2 | 32.9 | 31.7 | 46.3 | 28.6 | 32 |  |  |  |  |  | 
O=c1oc2cccnc2n1CCN1CCN(c2ccc(Oc3ccccc3)cc2)CC1 | > 100 | > 100 | > 100 | > 100 | > 100 | > 100 | > 100 | > 100 | > 100 | > 100 | > 100 | > 100 | > 100 | > 100 |  |  |  |  |  | 
COc1cc(/C=C/c2sc3ccccc3[n+]2C)ccc1N(C)C | 21.8 | 32 | 23.2 | 32.8 | 33.5 | 16.2 | 18.5 | > 100 |  | 25.8 | 54.8 | 30 | > 100 | 25.7 | 8.06 | 11.2 | 3.15 | 5.49 | 8.06 | 12.4
O=C1OC2c3ccccc3C(=O)C2(c2ccccc2)N1c1ccccc1 (configuration not stated) | > 200 | > 200 | > 200 | > 200 | > 200 | > 200 | > 200 | > 200 | > 200 | > 200 | > 200 | > 200 | > 200 | > 200 |  |  |  |  |  | 
O/N=C1/CCCCCC1NO (configuration not stated) | > 100 | > 100 | > 100 | > 100 | > 100 | > 100 | > 100 | > 100 | > 100 | > 100 | > 100 | > 100 | > 100 | > 100 |  |  |  |  |  | 
Cc1cc(C)nc(NS(=O)(=O)c2ccc(NNC(=O)c3cccc4c(NNc5ccc(S(=O)(=O)Nc6nc(C)cc(C)n6)cc5)c5ccccc5nc34)cc2)n1 | 46.6 | 67.7 | 44.9 | 85.9 | 48.7 | 64.9 | 33 | 71.9 | 43.4 | 48.3 | 87.1 | 66.8 | 41.8 | 48.7 |  |  |  |  |  | 
Fc1ccc(NCn2nc(COc3ccccc3Cl)n(/N=C/c3ccc(-c4ccc(Cl)cc4Cl)o3)c2=S)cc1Cl | 75.2 | > 100 | > 100 | > 100 | 56.6 | 72 | 29.9 | > 100 | > 100 | > 100 | > 100 | 45.5 | > 100 | > 100 |  |  |  |  |  | 
CC(=O)[O-].[Ni].c1ccc(/C(=N\Nc2ccccn2)c2ccccn2)cc1 | 22.7 | 20.7 | 22.8 | 30.1 | 30 | 16.3 | 18.3 | > 100 | 31.6 | 32.2 | 43.2 | 24.3 | 39.3 | 18.8 |  | 6.01 |  |  | 0.076 | 
O=C(O)CSc1nnc(CCCCCCCCc2nnc(SCC(=O)O)o2)o1 | > 100 | > 100 | > 100 | > 100 | > 100 | > 100 | > 100 | > 100 | > 100 | > 100 | > 100 | > 100 | > 100 | > 100 |  |  |  |  |  | 
CC(=O)N1CC[N+](C)(CCCCN2c3ccccc3Sc3cc(N=[N+]=[N-])ccc32)CC1 | > 100 | > 100 | > 100 | > 100 | > 100 | > 100 | > 100 | > 100 | > 100 | > 100 | > 100 | > 100 | > 100 | > 100 |  |  |  |  |  | 
BrCCC[P+](c1ccccc1)(c1ccccc1)c1ccccc1 | > 100 | > 100 | 86 | > 100 | 7.55 | > 100 | 21 | > 79.6 | > 100 | > 100 | > 100 | > 94.6 | > 100 | > 100 |  |  |  |  |  | 
COc1ccc2c[n+](C)c3c4cc(OC)c(OC)cc4ccc3c2c1 | 15.3 | 51.5 | 18.3 | 27.7 | 35.2 | 16.1 | 29.3 | 16.1 | 13.8 | 16.4 | 14.7 | 32.3 | > 100 | 40.1 |  |  |  |  |  | 
C=C(CN(C)C)C(=O)c1cc(C)ccc1C | 33.5 | 20.4 | 36.2 | 33.8 | 9.52 | 5.34 | 27.2 | > 91.3 | 66.5 | 5.96 | 33 | 3.86 | 11.8 | 42.5 |  |  |  |  |  | 
Cc1ccc(S(=O)C[C@@]2(C(F)F)NC(=O)NC2=O)cc1 (some centres not stated) | > 100 | > 100 | > 100 | > 100 | > 100 | > 100 | > 100 | > 100 | > 100 | > 100 | > 100 | > 100 | > 100 | > 100 |  |  |  |  |  | 
O=C(Nc1nncs1)NS(=O)(=O)n1cnc2ccccc21 | > 100 | > 100 | > 100 | > 100 | > 100 | > 100 | > 100 | > 100 | > 100 | > 100 | > 100 | > 100 | > 100 | > 100 |  |  |  |  |  | 
O=C1/C(=C/c2ccc(Cl)cc2)N=C(c2ccccc2)N1C1Nc2cc3c(cc2S1)NC(N1C(=O)/C(=C/c2ccc(Cl)cc2)N=C1c1ccccc1)S3 (configuration not stated) | > 100 | > 100 | > 100 | > 100 | > 100 | > 100 | > 100 | > 100 | > 100 | > 100 | > 100 | > 100 | > 100 | > 100 |  |  |  |  |  | 
COCC(=O)OC1CCn2c1nc1c2C(=O)C(C)=C(NC(C)=O)C1=N (configuration not stated) | 17.9 | 32 | 8.82 | 29.2 | 6.47 | 6.79 | 5.92 | 18.8 | 7.19 | 6.12 | 37.5 | 5.2 | 23.2 | 10.6 |  |  |  |  |  | 
O=C1NC(N/N=C/c2ccccc2)=N/C1=C\c1cccs1 | 32.8 | 71.5 | 38.7 | 37.8 | 40.7 | > 41 | 20.7 | 9.94 | 29.3 | > 47.5 | 39.1 | > 92.3 | 33.3 | 37.7 |  |  |  |  |  | 
CC(=O)Nc1ccc(S(=O)(=O)[N-]C2C(=O)c3ccccc3C(=O)C2[n+]2ccccc2)cc1 (configuration not stated) | 27.3 | > 100 | > 100 | 35.3 | 30.4 | > 100 | 15.3 | 62.4 | 38.3 | 32.9 | > 100 | 47.2 | > 100 | 30.1 |  |  |  |  |  | 
O=c1c[n+](-c2ccccc2)[nH]o1 | > 100 | > 100 | > 100 | > 100 | > 100 | > 100 | > 100 | > 100 |  | > 100 | > 100 |  | > 100 | > 100 |  |  |  |  |  | 
CCCN1CN(c2ccccc2)C2(CCN(CCCC(=O)c3ccc(F)cc3)CC2)C1=O | 30.7 | 22.4 | 18.1 | 8.66 | 37 | 42.2 | 4.84 | 34.1 | 32.6 | 20.4 | 43.1 | 15.5 | 41.1 | 34.3 |  |  |  |  |  | 
Cn1c(=O)c2c(ncn2CCSS(=O)(=O)O)n(C)c1=O | > 100 | > 100 | > 100 | > 100 | > 100 | > 100 | > 100 | > 100 | > 100 | > 100 | > 100 |  | > 100 | > 100 |  |  |  |  |  | 
CCOC(=O)NC(NNc1ccc([N+](=O)[O-])cc1[N+](=O)[O-])(C(F)(F)F)C(F)(F)F | 64.6 | 96 | > 100 | > 100 | > 100 | 47.4 | > 100 | > 100 | > 100 | > 100 | 69.4 | > 100 | > 100 | > 100 |  |  |  |  |  | 
CC(C)c1ccc2c(c1)C=C1OC(=O)[C@]3(C)CCC[C@@]2(C)C13 (some centres not stated) | > 100 | > 100 | > 100 | > 100 | > 100 | > 100 | > 100 | > 100 | > 100 | > 100 | > 100 | > 100 | > 100 | > 100 |  |  |  |  |  | 
O=Cc1[nH]c(=O)[nH]c(=O)c1CCl | > 100 | > 100 | > 100 | > 100 | > 100 | > 72.1 | > 100 | > 100 | > 100 | > 100 | > 100 | > 100 | > 100 | > 100 |  |  |  |  |  | 
COP(=O)(OC)C(O)/C=C(\Cl)c1ccc(Cl)cc1 (configuration not stated) | > 100 | > 100 | > 100 | > 100 | > 100 | 63.4 | 67.8 | > 100 | 54.6 | > 100 | > 100 | 86.1 | > 100 | > 100 |  |  |  |  |  | 
